From patent US5373089A, “Oxytocin antagonist” (Northwestern University, priority 1993, dated 1994)
Starred links: 1 amine or outer side, 2 acyl side, 3 side chain; linkers in the order of their positions; H or OH if unused. Positions of bridges follow the written chain, without caps; N, C: chain ends. Non-standard residues stand in square brackets, D forms with d. Residues, ends and D or L forms follow the SMILES beside them. X1 = O=C(CC1(S[*:2])CCCCC1)[*:1]

Key:
[1] = test system: ESTROUS RAT UTERUS; assay: Oxytocic bioassay (isolated rat uterus, integrated contraction response to oxytocin); format: cell-based; conditions: for Oxytocic Bioassay pA2: virgin rat uterus in natural estrus, Munsick's buffer 0.5 mM Mg++, integrated contraction area
Excerpt: The protocol used for the oxytocin bioassay procedure is derived from procedures described in a paper by Sawyer, et al., Endocrinology, 106:81 (1980), which in turn was based on reports of Munsick, Brit. J. Pharmacol., 3:328 (1960), and Holton, Brit. J. Pharmacol., 3:328 (1948). The assay calculations for the pA2 estimates are described by Schild, British J. Pharmacology, 2:189 (1947). The major difference in the present procedure from those reported by others in the field is that the area under the contraction is integrated where most other techniques calculate the amplitude. Integration provides much more consistent and reliable results although the pA2 estimates are approximately an order of magnitude lower than those reported using amplitude of the contraction as the endpoint.
1. Animals--a 1.5 cm piece of uterus from a virgin rat (Holtzman) in natural estrus is used for the assay.
2. Buffer/Assay Bath--The buffer used is Munsicks. […] The buffer is gassed continuously with 95% oxygen; 5% carbon dioxide giving a pH of 7.4. The temperature of the assay bath is 37° C. A 10 ml assay bath is used that contains a water jacket for maintaining the temperature and inlet and outlet spikets for adding and removing buffer.
3. Polygraph/transducer--The piece of uterine tissue used for the assay is anchored at one end and connected to a Statham Strain Gauge Force Transducer at the other end which in turn is attached to a Grass Polygraph Model 79 for monitoring the contractions.
4. Assay Protocol. (a) The tissue is equilibrated in the assay bath for one hour with washing with new buffer every fifteen minutes. One gram of tension is kept on the tissue at all times.
(b) The tissue is stimulated initially with oxytocin at 10 nM to "acclimate" the tissue and with […] KCl to determine the maximum contractile response.
(d) The tissue is exposed to oxytocin (Calbiochemical, San Diego, Calif.) for one minute and washed out. There is a three minute interval before addition of the next dose of the agonist or antagonist. When the antagonist is tested, it is given five minutes before the agonist. The agonist is given for one minute. All responses are integrated using a 7P10 Grass Integrator. This is the major difference between the present protocol and others in the literature which usually measure amplitude of the contractions as the response. A single concentration of oxytocin, equal to 80% of the maximum response, is used to test the antagonist. […] This is repeated three times for each dose of antagonist for a three point assay.
(e) Calculations for pA2 : The dose-response (DR) ratios are calculated for antagonist and a Schild's Plot is performed by plotting the Log (DR-1) vs. Log of antagonist concentration. The line plotted is calculated by least squares regression analysis. The pA2 is the concentration of antagonist at the point where the regression line crosses the 0 point of the Log (DR-1) ordinate. The pA2 is the negative Log of the concentration of antagonist that will reduce the response to the agonist by one-half.
The protocol used for the oxytocin bioassay procedure is derived from procedures described in a paper by Sawyer, et al., Endocrinology, 106:81 (1980), which in turn was based on reports of Munsick, Brit. J. Pharmacol., 3:328 (1960), and Holton, Brit. J. Pharmacol., 3:328 (1948). The assay calculations for the pA2 estimates are described by Schild, Brit. J. Pharmacol. (1947). The major difference in procedure from those previously reported was the integration of the area under the contraction instead of merely calculating the amplitude. Integration provides more consistent and reliable results, although the pA2 estimates are about an order of magnitude lower than those reported using amplitude of the contraction as the endpoint.
A 1.5 cm piece of uterus from a virgin rat (Holtzman) in natural estrus is used for the assay.
The buffer used is Munsick's. […]

[2] = biological target: T1, RAT OXYTOCIN RECEPTOR (Rattus norvegicus, UniProt P70536); assay: Oxytocin receptor assay, pregnant rat uterus (P21) membranes, 3H-OT competition; format: binding
T1 construct: from tissue; host or cells: uterus of day-21 pregnant Holtzman rats, sucrose-gradient membrane fraction
T1 sequence (P70536 1-388): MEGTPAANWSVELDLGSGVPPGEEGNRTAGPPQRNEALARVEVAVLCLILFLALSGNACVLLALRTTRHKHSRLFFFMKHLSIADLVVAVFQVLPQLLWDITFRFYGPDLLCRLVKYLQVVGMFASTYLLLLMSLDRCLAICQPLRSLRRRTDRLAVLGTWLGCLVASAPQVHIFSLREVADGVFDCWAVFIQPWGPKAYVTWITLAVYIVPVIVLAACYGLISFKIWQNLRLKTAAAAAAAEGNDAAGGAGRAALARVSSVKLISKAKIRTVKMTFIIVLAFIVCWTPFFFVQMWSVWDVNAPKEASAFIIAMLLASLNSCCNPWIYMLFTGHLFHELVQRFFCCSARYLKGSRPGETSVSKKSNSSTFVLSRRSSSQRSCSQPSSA
Experimental: Uterine tissue was removed on day 21 of pregnancy (delivery=Days 211/2 to 221/2) from Holtzman rats. The tissue was emptied of its contents, rinsed in ice cold buffer, cut into small pieces and frozen at -70° C. until homogenization.
Oxytocin receptors (OTrs) reside on the cell membrane and are present at high concentrations at the end of pregnancy in uterine tissue. Frozen tissue is homogenized in Tris buffer, the homogenate filtered, and the filtrate centrifuged at 1000 g for 15 minutes at 4° C. The supernatant is centrifuged at 40,000 g for 30 minutes and the pellet containing the cell membranes resuspended in 10% sucrose. Density gradient ultracentrifugation is then performed by placing the 10 % sucrose suspension on top of 35% sucrose and centrifuging for 30 minutes in a swing bucket rotor at 105,000 g. The membranes at the interface of the 10%/35% sucrose are removed and resuspended in Tris buffer containing EDTA for 30 minutes. This procedure removes divalent cation and results in dissociation of any endogenously bound OT to the receptor. This mixture is then centrifuged for 15 minutes at 100,000 g and the pellet containing the membrane OTrs resuspended in Tris, PMSF, Mg^++, buffer by sonication.
The binding assay consist of 0.1 ml of 20,000 cmp of tritium labeled OT (New England Nuclear, […]), 0.1 ml of OT antagonist added at increasing concentration, 0.25 ml of buffer and 0.05 ml of membrane (70-150 ug protein). A nonspecific tube has 100× of cold OTA added to it. The incubation is for 30 minutes at 30 ° C. The membrane is pelleted by centrifugation in ultraclear mini tubes (5×41 mm) for 30 minutes at 105,000 g. The resulting pellet containing the bound ^3 H-OT is dissolved in 0.1N NaOH at 45 ° C. for 30 minutes and this mixture is then placed in liquid scintillation counting fluid and counted for dpms in a scintillation counter.
The data is analyzed by nonlinear curve fitting methods using McPherson's EBDA (J Pharmacol Methods 14:213-228, 1985) and Munson and Rodbard's LIGAND (Anal Biochem 107:220-239, 1980) program for saturation and competition analysis for determining Kds and Kis.

| Molecule | Oxytocic Bioassay pA2 [1] | Kd [2] [nM] | OXYTOCIC BIOASSAY ED50 ([1]; estrous rat uterus, Table 3) [nM] | BIOASSAY ED50 ([1]; estrous rat uterus, Table 4) [nM] | BIOASSAY (ANTI/OTA) ([1]; ratio to ANTAG I, rat oxytocic bioassay) | Oxytocic Bioassay pA2 ([1]; D-Trp^2,Pen^6,Arg^8 ] oxytocin) | RECEPTOR ASSAY Ka ([2]; pregnant rat uterus (P21), Table 3) | rOTr (OTA/ANTI) ([2]; ratio of binding affinity to ANTAG I, rat oxytocin receptor) |
| --- | --- | --- | --- | --- | --- | --- | --- | --- |
| CC[C@H](C)[C@@H]1NC(=O)[C@H](Cc2ccccc2)NC(=O)[C@@H](Cc2c[nH]c3ccccc23)NC(=O)CC2(CCCCC2)SSC[C@@H](C(=O)N2CCC[C@H]2C(=O)N[C@@H](CCCNC(=N)N)C(=O)NCC(N)=O)NC(=O)[C@H](CC(N)=O)NC1=O [Compound B, [Pmp^1,D-Trp^2,Phe^3,Ile^4,Arg^8] oxytocin] ([dW]FINCPRG-NH2; linker N-5 via X1) | 7.51 | 8.62 |  |  |  |  |  |  |
| [(S)Pmp^1,D-Trp^2,Pen^6,Arg^8 ] oxytocin [Compound D] | 8.86 |  | 1.38 | 1.38 | 22.1 | greater than 8.86 | 24.40 10^+8 M^-1 | 20.0 |
